Experimental data: ChEMBL document CHEMBL1201862, “PubChem BioAssay data set” (2004)
Calls of active or inactive are those of the source.

Tests used:
Major prion protein = Major prion protein (Homo sapiens, UniProt P04156); format: functional, cell-based
cells [1] = assay: cells
Kallikrein-7 = Kallikrein-7 (Homo sapiens, UniProt P49862); assay: Fluorescence Intensity-based biochemical primary high throughput dose response assay to identify activators of kallikrein-7 (K7) zymogen.
cells [2] = format: functional
[3] = biological target: NAD-dependent protein deacylase sirtuin-5, mitochondrial (Homo sapiens, UniProt Q9NXA8); assay: sirtuin-5 deacylation blockers, concentration series – biochemical, fluorescence imaging, cherry-pick, set 5, dose response (AID 720591);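 also: desuccinylation of succinyl peptide AMC substrate read as fluorescence after trypsin release; potency of inhibitors that lower fluorescence and may act on trypsin instead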
[4] = biological target: T1, Neuropeptide Y receptor type 1 (Homo sapiens, UniProt P25929); assay: Fluorescence-based counterscreen for agonists of NPY-Y2: cell-based high-throughput dose response assay for agonists of NPY-Y1.; format: functional
T1 sequence (P25929 whole entry): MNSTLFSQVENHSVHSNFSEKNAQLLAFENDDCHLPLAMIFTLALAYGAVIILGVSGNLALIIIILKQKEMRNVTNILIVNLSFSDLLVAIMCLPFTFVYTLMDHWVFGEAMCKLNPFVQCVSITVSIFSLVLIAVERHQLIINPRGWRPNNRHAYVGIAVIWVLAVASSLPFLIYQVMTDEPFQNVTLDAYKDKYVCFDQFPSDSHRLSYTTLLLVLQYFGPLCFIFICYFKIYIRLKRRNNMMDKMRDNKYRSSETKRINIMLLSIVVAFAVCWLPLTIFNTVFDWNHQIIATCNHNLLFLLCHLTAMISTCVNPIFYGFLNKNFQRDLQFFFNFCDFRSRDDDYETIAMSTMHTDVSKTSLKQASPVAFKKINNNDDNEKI

HEK293 = assay: Fluorescence-based counterscreen for potentiators or agonists of NPY-Y2: cell-based high-throughput dose response assay to identify inhibitors of cyclic nucleotide gated ion channel (CNGC) activity. In this assay, the parental HEK293 cell line transfected with a cyclic-nucleotide gated ion channel (CNGC)-based cAMP sensor is used to measure inhibition of isoproterenol-induced CNGC activity by test compound.; format: functional; conditions: Homo sapiens;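 also: stimulus is 1 µM isoproterenol at EC100 plus PDE inhibitor Ro 20-1724 at 25 µM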
[5] = biological target: T2, Neuropeptide Y receptor type 2 (Homo sapiens, UniProt P49146); assay: Fluorescence-based cell-based high-throughput dose response assay for agonists of NPY-Y2. [Related pubchem assays: 1703 (Screening assay (CNGC inhibitors).), 1359 (Screening assay (NPY-Y2 potentiators or agonists).), 1304 (Screening assay (NPY-Y1 potentiators or agonists).), 1710 (Screening assay (NPY-Y2 agonists).), 1791 (Summary AID.)]; format: functional
T2 sequence (P49146 whole entry): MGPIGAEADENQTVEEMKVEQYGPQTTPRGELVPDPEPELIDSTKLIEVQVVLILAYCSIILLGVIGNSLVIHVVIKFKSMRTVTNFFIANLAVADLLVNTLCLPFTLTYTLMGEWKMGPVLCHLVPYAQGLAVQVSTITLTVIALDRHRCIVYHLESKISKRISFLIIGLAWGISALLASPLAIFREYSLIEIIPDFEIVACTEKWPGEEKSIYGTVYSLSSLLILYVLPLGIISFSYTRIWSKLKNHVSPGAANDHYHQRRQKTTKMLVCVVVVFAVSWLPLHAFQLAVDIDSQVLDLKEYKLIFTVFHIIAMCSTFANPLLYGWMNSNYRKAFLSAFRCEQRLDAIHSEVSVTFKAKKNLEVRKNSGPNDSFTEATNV

[6] = Trypanosoma cruzi growth suppression in host cells – NIH3T3 host cells, beta-gal luminescence, confirmation (AID 2044); format: functional, cell-based;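 also: intracellular parasites grown in NIH/3T3 mouse fibroblasts as host cells; luminescent beta-galactosidase reporter signal from transgenic T. cruzi replicating inside host cells; inhibitors lower the luminescence signal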
[7] = viability loss in HEK293 cells – cell-based, plate reader, cherry-picked samples, cytotoxicity control, dose response (AID 743446); format: functional
[8] = A549 cell cytotoxicity, dose response, cytotoxicity control, plate reader, cherry-pick, antagonist series (AID 743412); format: functional, cell-based
[9] = toxicity toward HepG2 liver cells – cell-based, plate reader, cherry-pick, antagonist series, cytotoxicity control, dose response (AID 743416); format: functional
[10] = NIH3T3 cell viability loss – ATP luminescence, mouse fibroblasts, counter-screen, dose response (AID 2010); format: functional, cell-based;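 also: cells exposed to compound for about 90 hours before reading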
[11] = HIV-1 AD8 envelope cell-cell fusion blockers – cherry-pick, dose response (AID 652062); format: functional, cell-based;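 also: luciferase signal from cell-cell fusion driven by HIV-1 clade B AD8 Env; potency is for inhibitors of fusion seen as a drop in luminescence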
[12] = blockers of HIV-1 ZM109 envelope-driven cell-cell fusion – HeLa effector, CEM target cells, luciferase, cherry-pick, dose response (AID 652058); format: functional, cell-based;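 also: luciferase signal from HIV-1 Env mediated cell-cell fusion of effector and target cells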
[13] = blockers of HIV-1 envelope-mediated cell-cell fusion – cherry-pick, dose response (AID 652057); format: functional, cell-based
[14] = off-target signal loss in HeLa-CEM21 co-culture – HeLa F-luc CTL cells, cherry-picked, counter-screen for HIV-1 Env fusion inhibitor project, dose response (AID 652040); format: functional, cell-based;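 also: potency for signal decrease marking cytotoxic or nonspecific inhibition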

CN(C(=O)CSc1cc(C(=O)c2nccn2C)c2ccccc2n1)c1ccccc1
IC50 (Major prion protein): 11.4 µM (inactive)
IC50 (cells [1]): > 138 µM (inactive)

COC(=O)C(C)Oc1ccc2cc(-c3ccccc3)c(=O)oc2c1 (configuration not stated)
EC50 (Kallikrein-7): 5.16 µM (active)
IC50 (cells [2]): 6.14 µM (active)

O=C(O)CCNc1nc(C(F)(F)F)nc2ccccc12
AC50 [3]: 1.64 µM (active)

Cc1c(C(=O)c2ccccc2C(=O)O)sc2ccccc12
IC50 (Major prion protein): 8.21 µM (active)
IC50 (cells [1]): > 138 µM (inactive)

CCOC(=O)c1ccc(-n2c(=S)sc3c(O)nc(C)nc32)cc1
EC50 [4]: > 35.4 µM (not active)
EC50 (HEK293): > 35.4 µM (not active)
EC50 [5]: > 35.4 µM (not active)

CCOC(=O)c1c(C)n(C)c2ccc(OCC(O)CNCCc3ccccc3)cc12 (configuration not stated)
EC50 [6]: 0.601 µM (active)
AC50 [7]: > 52 µM (inactive)
AC50 [8]: 37.7 µM (active)
AC50 [9]: 21.9 µM (active)
EC50 [10]: 4.89 µM (active)

Cc1oc2c(C)c3oc(=O)c(CCC(=O)NCCCCCC(=O)O)c(C)c3cc2c1C
EC50 (Kallikrein-7): > 69.5 µM (inactive)

COc1cc2oc(=O)cc(-c3ccc(-c4ccc(CO)cc4)cc3)c2c(OC)c1OC
AC50 [11]: 13.2 µM (active)
AC50 [12]: 5.08 µM (active)
AC50 [13]: 12.1 µM (active)
AC50 [14]: 8.61 µM (active)

Cc1nc(SCCC(=O)O)c2ccccc2n1
IC50 (Major prion protein): 0.915 µM (active)
IC50 (cells [1]): > 138 µM (inactive)
